Measured values as given in patent US5218096A, “Lactoneotrehalose, and its preparation and uses” (Kabushiki Kaisha Hayashibara Seibutsu Kagaku Kenkyujo, priority 1990, dated 1993).
Converted amounts (≈) assume the structure as drawn. Read-outs that look alike come from different tables or passages of the source.

Key:
[1] = system: Bacteroides distasonis JCM 5825; experiment: Assimilation by intestinal microorganism; assay type: cell-based; conditions: 0.5 w/v % saccharide, PYF broth, 37° C., 96 hours
Description: (§1) The resultant broth was diluted 5-fold, and the turbidity of the diluted solution was determined at 750 nm in 1-cm cell cuvette. The growth of the intestinal microorganisms and the assimilability of lactoneotrehalose were both evaluated with the turbidity. As control, glucose and lactose were used in place of lactoneotrehalose.

[2] = system: Bifidobacterium adolescentis JCM 1275; experiment: Assimilation by intestinal microorganism; assay type: cell-based; conditions: 0.5 w/v % saccharide, PYF broth, 37° C., 96 hours
Description: as §1

[3] = system: Bifidobacterium animalis JCM 1190; experiment: Assimilation by intestinal microorganism; assay type: cell-based; conditions: 0.5 w/v % saccharide, PYF broth, 37° C., 96 hours
Description: as §1

[4] = system: Bifidobacterium breve JCM 1192; experiment: Assimilation by intestinal microorganism; assay type: cell-based; conditions: 0.5 w/v % saccharide, PYF broth, 37° C., 96 hours
Description: as §1

[5] = system: Bifidobacterium infantis JCM 1222; experiment: Assimilation by intestinal microorganism; assay type: cell-based; conditions: 0.5 w/v % saccharide, PYF broth, 37° C., 96 hours
Description: as §1

[6] = system: Bifidobacterium longum JCM 1217; experiment: Assimilation by intestinal microorganism; assay type: cell-based; conditions: 0.5 w/v % saccharide, PYF broth, 37° C., 96 hours
Description: as §1

[7] = system: Clostridium sporogenes JCM 1416; experiment: Assimilation by intestinal microorganism; assay type: cell-based; conditions: 0.5 w/v % saccharide, PYF broth, 37° C., 96 hours
Description: as §1

[8] = system: Escherichia coli IFO 3301; experiment: Assimilation by intestinal microorganism; assay type: cell-based; conditions: 0.5 w/v % saccharide, PYF broth, 37° C., 96 hours
Description: as §1

[9] = system: Eubacterium aerofaciens ATCC 25986; experiment: Assimilation by intestinal microorganism; assay type: cell-based; conditions: 0.5 w/v % saccharide, PYF broth, 37° C., 96 hours
Description: as §1

[10] = system: Eubacterium limosum JCM 6421; experiment: Assimilation by intestinal microorganism; assay type: cell-based; conditions: 0.5 w/v % saccharide, PYF broth, 37° C., 96 hours
Description: as §1

[11] = system: Lactobacillus acidophilus JCM 1132; experiment: Assimilation by intestinal microorganism; assay type: cell-based; conditions: 0.5 w/v % saccharide, PYF broth, 37° C., 96 hours
Description: as §1

[12] = system: Lactobacillus plantarum IFO 3070; experiment: Assimilation by intestinal microorganism; assay type: cell-based; conditions: 0.5 w/v % saccharide, PYF broth, 37° C., 96 hours
Description: as §1

[13] = system: Peptostreptococcus prevotii ATCC 9321; experiment: Assimilation by intestinal microorganism; assay type: cell-based; conditions: 0.5 w/v % saccharide, PYF broth, 37° C., 96 hours
Description: as §1

[14] = system: Streptococcus faecalis IAM 10065; experiment: Assimilation by intestinal microorganism; assay type: cell-based; conditions: 0.5 w/v % saccharide, PYF broth, 37° C., 96 hours
Description: as §1

[15] = Digestion test in vitro, hydrolysis rate; assay type: in vitro ADME; conditions: salivary amylase, read-out: hydrolysis rate (the ratio of reducing sugars against total sugars)
Description: (§2) In accordance with the method reported in Okada et al., Journal of Japanese Society of Nutrition and Food Science, Vol.43, No.1, pp.23-29 (1990), a crystalline lactoneotrehalose specimen prepared by the method in Experiment 1 was tested for its digestibility in vitro, and the digestibility was evaluated based on the hydrolysis rate (the ratio of reducing sugars against total sugars).

[16] = Digestion test in vitro, hydrolysis rate; assay type: in vitro ADME; conditions: gastric juice, read-out: hydrolysis rate (the ratio of reducing sugars against total sugars)
Description: as §2

[17] = Digestion test in vitro, hydrolysis rate; assay type: in vitro ADME; conditions: amylopsin, read-out: hydrolysis rate (the ratio of reducing sugars against total sugars)
Description: as §2

[18] = Digestion test in vitro, hydrolysis rate; assay type: in vitro ADME; conditions: small intestinal mucosa enzyme; in vitro, enzyme of small intestinal mucous membrane; read-out: hydrolysis rate (the ratio of reducing sugars against total sugars)
Description: as §2

[19] = system: Enzyme of small intestinal mucous membrane; experiment: Digestion test in vitro, hydrolysis rate; assay type: in vitro ADME; conditions: conclusion from Table 1
Description: as §2

[20] = system: microorganisms of the genus Bifidobacterium; experiment: Assimilation by intestinal microorganism, overall finding; assay type: cell-based; conditions: conclusion from Table 3
Description: as §1

mice = experiment: Acute toxicity test, oral
Excerpt: A crystalline lactoneotrehalose specimen, prepared by the method in Experiment 1, was orally administered to 7 week-old dd mice for acute toxicity test.

Solubility = assay type: physicochemical
Heat of dissolution = assay type: physicochemical
[21] = Hygroscopicity, deliquescence and moisture content; assay type: physicochemical
Excerpt: (9) Physical properties and color Colorless and transparent crystal having a true specific gravity of 1.59.

[22] = Acidity of aqueous solution; assay type: physicochemical
Coloring reaction = assay type: physicochemical

OC[C@H]1O[C@@H](O[C@H]2[C@H](O)[C@@H](O)C(O)O[C@@H]2CO)[C@H](O)[C@@H](O)[C@H]1O (stereo partly drawn) [Lactose, O-β-D-galactopyranosyl-(1→4)-D-glucose]
Judgement of turbidity (A750 × 5) [1]: ± (0.1 or higher but less than 0.15)
Judgement of turbidity (A750 × 5) [2]: ++ (0.2 or higher but less than 0.3)
Judgement of turbidity (A750 × 5) [3]: ++ (0.2 or higher but less than 0.3)
Judgement of turbidity (A750 × 5) [4]: +++ (0.3 or higher)
Judgement of turbidity (A750 × 5) [5]: ++ (0.2 or higher but less than 0.3)
Judgement of turbidity (A750 × 5) [6]: ++ (0.2 or higher but less than 0.3)
Judgement of turbidity (A750 × 5) [7]: - (less than 0.1)
Judgement of turbidity (A750 × 5) [8]: ± (0.1 or higher but less than 0.15)
Judgement of turbidity (A750 × 5) [9]: ++ (0.2 or higher but less than 0.3)
Judgement of turbidity (A750 × 5) [10]: - (less than 0.1)
Judgement of turbidity (A750 × 5) [11]: + (0.15 or higher but less than 0.2)
Judgement of turbidity (A750 × 5) [12]: + (0.15 or higher but less than 0.2)
Judgement of turbidity (A750 × 5) [13]: - (less than 0.1)
Judgement of turbidity (A750 × 5) [14]: + (0.15 or higher but less than 0.2)

OC[C@H]1O[C@@H](O[C@H]2[C@H](O)[C@@H](O)[C@H](O[C@H]3O[C@H](CO)[C@@H](O)[C@H](O)[C@H]3O)O[C@@H]2CO)[C@H](O)[C@@H](O)[C@H]1O [lactoneotrehalose, O-β-D-galactopyranosyl-(1→4)-O-β-D-glucopyranosyl α-D-glucopyranoside]
metabolised [15]: 0%
metabolised [16]: 0%
metabolised [17]: 0%
metabolised [18]: 60.2%
main site of hydrolysis [19]: mainly hydrolyzed by the enzyme from intestinal mucous membrane
Judgement of turbidity (A750 × 5) [1]: - (less than 0.1)
Judgement of turbidity (A750 × 5) [2]: ++ (0.2 or higher but less than 0.3)
Judgement of turbidity (A750 × 5) [3]: ++ (0.2 or higher but less than 0.3)
Judgement of turbidity (A750 × 5) [4]: ++ (0.2 or higher but less than 0.3)
Judgement of turbidity (A750 × 5) [5]: ++ (0.2 or higher but less than 0.3)
Judgement of turbidity (A750 × 5) [6]: ++ (0.2 or higher but less than 0.3)
Judgement of turbidity (A750 × 5) [7]: - (less than 0.1)
Judgement of turbidity (A750 × 5) [8]: - (less than 0.1)
Judgement of turbidity (A750 × 5) [9]: - (less than 0.1)
Judgement of turbidity (A750 × 5) [10]: - (less than 0.1)
Judgement of turbidity (A750 × 5) [11]: ± (0.1 or higher but less than 0.15)
Judgement of turbidity (A750 × 5) [12]: - (less than 0.1)
Judgement of turbidity (A750 × 5) [13]: - (less than 0.1)
Judgement of turbidity (A750 × 5) [14]: - (less than 0.1)
selective utilization by genus Bifidobacterium [20]: selectively utilized at a relatively high-level by microorganisms of the genus Bifidobacterium
mortality (mice; 7 week-old dd mice, up to 5 g): no mouse died
toxicity (mice; dd mice, conclusion): extremely low in toxicity
Solubility in solvents (Solubility; 0.1N hydrochloric acid): Readily soluble
Solubility in solvents (Solubility; 0.1N sodium hydroxide): Readily soluble
Solubility in solvents (Solubility; chloroform): insoluble
Solubility in solvents (Solubility; ethanol): scarcely soluble
Solubility in solvents (Solubility; ethyl acetate): insoluble
Solubility in solvents (Solubility; methanol): scarcely soluble
Solubility in solvents (Solubility; water): Readily soluble
solubility (Solubility; water, 25° C.): 217 mg/mL (≈ 430 mM)
Heat of dissolution (Heat of dissolution): 20.0 cal/g
hygroscopicity and deliquescence [21]: Free of hygroscopicity and deliquescence
moisture content of crystals ([21]; Karl Fischer's method, predried in vacuo at 60° C. for 16 hours): less than 3.0%
acidity of aqueous solution of the crystal [22]: neutral or slight acidity
Fehling's reaction (Coloring reaction): Negative
iodine coloration reaction (Coloring reaction): Negative

O=C[C@H](O)[C@@H](O)[C@H](O)[C@H](O)CO [Glucose, glucose]
Judgement of turbidity (A750 × 5) [1]: ± (0.1 or higher but less than 0.15)
Judgement of turbidity (A750 × 5) [2]: ++ (0.2 or higher but less than 0.3)
Judgement of turbidity (A750 × 5) [3]: ++ (0.2 or higher but less than 0.3)
Judgement of turbidity (A750 × 5) [4]: ++ (0.2 or higher but less than 0.3)
Judgement of turbidity (A750 × 5) [5]: ++ (0.2 or higher but less than 0.3)
Judgement of turbidity (A750 × 5) [6]: ++ (0.2 or higher but less than 0.3)
Judgement of turbidity (A750 × 5) [8]: ++ (0.2 or higher but less than 0.3)
Judgement of turbidity (A750 × 5) [9]: +++ (0.3 or higher)
Judgement of turbidity (A750 × 5) [10]: ± (0.1 or higher but less than 0.15)
Judgement of turbidity (A750 × 5) [11]: + (0.15 or higher but less than 0.2)
Judgement of turbidity (A750 × 5) [12]: + (0.15 or higher but less than 0.2)
Judgement of turbidity (A750 × 5) [13]: - (less than 0.1)
Judgement of turbidity (A750 × 5) [14]: ++ (0.2 or higher but less than 0.3)
